Measured values: patent US8901118B2, “Compounds and methods for kinase modulation, and indications therefor” (Plexxikon Inc., priority 2010, dated 2014)

Experiments:
CYP1A2 = biological target: T1, CYP1A2 (Homo sapiens, UniProt P05177); test: CYP1A2 inhibition (fluorescent substrate CEC); format: in vitro ADME; conditions: read-out: Cyp IC50 1A2
T1 sequence (P05177 1-516): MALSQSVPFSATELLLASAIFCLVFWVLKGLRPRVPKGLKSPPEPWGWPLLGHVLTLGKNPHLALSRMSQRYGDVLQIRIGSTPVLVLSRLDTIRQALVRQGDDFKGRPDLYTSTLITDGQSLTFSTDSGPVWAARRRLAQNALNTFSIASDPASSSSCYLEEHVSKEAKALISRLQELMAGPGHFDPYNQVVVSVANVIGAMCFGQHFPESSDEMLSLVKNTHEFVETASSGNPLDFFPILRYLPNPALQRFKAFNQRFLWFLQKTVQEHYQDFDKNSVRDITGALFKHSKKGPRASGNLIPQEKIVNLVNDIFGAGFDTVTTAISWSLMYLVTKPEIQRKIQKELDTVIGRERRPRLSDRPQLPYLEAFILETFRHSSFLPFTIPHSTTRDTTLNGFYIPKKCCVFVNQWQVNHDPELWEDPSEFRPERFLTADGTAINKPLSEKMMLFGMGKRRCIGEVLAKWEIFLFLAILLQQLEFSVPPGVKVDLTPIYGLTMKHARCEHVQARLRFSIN
Procedure, shortened: (§1)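 Test compound titrated 1:1 across ten concentrations; metabolite fluorescence measured after 37 °C incubation of 15 min (CYP1A2), 30 min (CYP2C19, CYP2D6) or 45 min (CYP2C9). IC50 from signal versus concentration.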

CYP2C19 = CYP2C19 (Homo sapiens, UniProt P33261); test: CYP2C19 inhibition (fluorescent substrate CEC); format: in vitro ADME; conditions: read-out: Cyp IC50 2C19
Sequence of CYP2C19 (P33261 whole entry): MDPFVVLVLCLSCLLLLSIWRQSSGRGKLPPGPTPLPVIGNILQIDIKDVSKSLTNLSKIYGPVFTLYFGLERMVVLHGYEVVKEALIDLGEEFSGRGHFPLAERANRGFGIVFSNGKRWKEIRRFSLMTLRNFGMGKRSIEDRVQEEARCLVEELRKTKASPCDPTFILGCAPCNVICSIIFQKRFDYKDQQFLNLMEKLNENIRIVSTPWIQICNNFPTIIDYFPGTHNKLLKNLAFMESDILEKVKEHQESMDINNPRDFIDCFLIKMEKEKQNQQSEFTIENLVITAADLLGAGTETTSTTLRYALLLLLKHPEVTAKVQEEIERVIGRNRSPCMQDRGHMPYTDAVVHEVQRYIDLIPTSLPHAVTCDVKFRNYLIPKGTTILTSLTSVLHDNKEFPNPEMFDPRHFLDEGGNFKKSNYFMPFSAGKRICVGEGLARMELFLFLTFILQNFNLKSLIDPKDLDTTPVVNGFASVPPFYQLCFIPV
Procedure, shortened: as §1

SKNSH cells = test: SKNSH (human neuroblastoma) cell proliferation assay (ATPlite); format: cell-based; conditions: SK-N-SH, read-out: Inhibition of Cell Proliferation IC50, SKNSH
Procedure, shortened: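 Fms/Trk inhibitor efficacy was tested by proliferation of SKNSH neuroblastoma cells. After 3 days of compound exposure at 37° C. in 5% CO2, 20 μL per well of ATPlite 1 step reagent was added, plates sat 10 minutes at room temperature, and luminescence, proportional to cell number, was read on a Safire reader to derive IC50.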

Cc1cnc2[nH]cc(Cc3ccc(NC4CCCCC4)nc3F)c2c1 [Compound P-3008, cyclohexyl-[6-fluoro-5-(5-methyl-1H-pyrrolo[2,3-b]pyridin-3-ylmethyl)-pyridin-2-yl]-amine]
IC50 (CYP1A2): > 10 µM | IC50 (CYP2C19): < 5 µM

Nc1ncnc2[nH]cc(C(=O)c3ccc(Nc4ccc(C5CC5)nc4)nc3F)c12 [Compound P-4048, (4-amino-7H-pyrrolo[2,3-d]pyrimidin-5-yl)-[6-[(6-cyclopropyl-3-pyridyl)amino]-2-fluoro-3-pyridyl]methanone]
IC50 (SKNSH cells): < 1 µM | IC50 (CYP1A2): > 10 µM | IC50 (CYP2C19): > 10 µM

CNc1ncnc2[nH]cc(C(=O)c3cnc(NC4CCC(F)(F)CC4)c(F)c3)c12 [Compound P-4054, [6-[(4,4-difluorocyclohexyl)amino]-5-fluoro-3-pyridyl]-[4-(methylamino)-7H-pyrrolo[2,3-d]pyrimidin-5-yl]methanone]
IC50 (SKNSH cells): < 10 µM | IC50 (CYP1A2): > 10 µM | IC50 (CYP2C19): > 10 µM

O=C(c1cnc(NC2CCC(F)(F)CC2)c(F)c1)c1c[nH]c2ncnc(NCC(F)(F)F)c12 [Compound P-4052, [6-[(4,4-difluorocyclohexyl)amino]-5-fluoro-3-pyridyl]-[4-(2,2,2-trifluoroethylamino)-7H-pyrrolo[2,3-d]pyrimidin-5-yl]methanone]
IC50 (SKNSH cells): > 1 µM | IC50 (CYP1A2): > 10 µM | IC50 (CYP2C19): > 10 µM

CCNc1ncnc2[nH]cc(C(=O)c3ccc(NC4CCC(F)(F)CC4)nc3Cl)c12 [Compound P-4050, [2-chloro-6-[(4,4-difluorocyclohexyl)amino]-3-pyridyl]-[4-(ethylamino)-7H-pyrrolo[2,3-d]pyrimidin-5-yl]methanone]
IC50 (SKNSH cells): < 1 µM | IC50 (CYP1A2): > 10 µM | IC50 (CYP2C19): > 10 µM

O=C(c1cnc(NC2CCC(F)(F)CC2)c(F)c1)c1c[nH]c2ncnc(NC3CC3)c12 [Compound P-4053, [4-(cyclopropylamino)-7H-pyrrolo[2,3-d]pyrimidin-5-yl]-[6-[(4,4-difluorocyclohexyl)amino]-5-fluoro-3-pyridyl]methanone]
IC50 (SKNSH cells): < 1 µM | IC50 (CYP1A2): > 10 µM | IC50 (CYP2C19): > 10 µM

Nc1ncnc2[nH]cc(C(=O)c3ccc(NC4CCC(F)(F)CC4)nc3Cl)c12 [Compound P-4046, (4-amino-7H-pyrrolo[2,3-d]pyrimidin-5-yl)-[2-chloro-6-[(4,4-difluorocyclohexyl)amino]-3-pyridyl]methanone]
IC50 (SKNSH cells): < 10 µM

CC(C)(O)CNc1ncnc2[nH]cc(C(=O)c3ccc(Nc4ccc(C5CC5)nc4)nc3F)c12 [Compound P-4049, [6-[(6-cyclopropyl-3-pyridyl)amino]-2-fluoro-3-pyridyl]-[4-[(2-hydroxy-2-methyl-propyl)amino]-7H-pyrrolo[2,3-d]pyrimidin-5-yl]methanone]
IC50 (SKNSH cells): < 1 µM | IC50 (CYP1A2): > 10 µM | IC50 (CYP2C19): 5 to 10 µM

CC(C)=CNc1ncnc2[nH]cc(C(=O)c3ccc(NC4CCC(F)(F)CC4)nc3Cl)c12 [Compound P-4047, [2-chloro-6-[(4,4-difluorocyclohexyl)amino]-3-pyridyl]-[4-(2-methylprop-1-enylamino)-7H-pyrrolo[2,3-d]pyrimidin-5-yl]methanone]
IC50 (CYP1A2): > 10 µM | IC50 (CYP2C19): > 10 µM

Fc1nc(Nc2ccc(C3CC3)nc2)ccc1Cc1c[nH]c2ncnc(C3CC3)c12 [Compound P-4041, (6-Cyclopropyl-pyridin-3-yl)-[5-(4-cyclopropyl-7H-pyrrolo[2,3-d]pyrimidin-5-ylmethyl)-6-fluoro-pyridin-2-yl]-amine]
IC50 (CYP1A2): 5 to 10 µM | IC50 (CYP2C19): < 5 µM

CCNc1ncnc2[nH]cc(C(=O)c3cnc(NC4CCC(F)(F)CC4)c(F)c3)c12 [Compound P-4051, [6-[(4,4-difluorocyclohexyl)amino]-5-fluoro-3-pyridyl]-[4-(ethylamino)-7H-pyrrolo[2,3-d]pyrimidin-5-yl]methanone]
IC50 (SKNSH cells): < 1 µM | IC50 (CYP1A2): > 10 µM | IC50 (CYP2C19): > 10 µM
